The text below walks through data of publication PMC8284666, “Biochemical characterization of protease activity of Nsp3 from SARS-CoV-2 and its inhibition by nanobodies” (PLoS ONE, 2021).

Read-outs that look alike come from different tables or passages of the source. A value given as a limit tells only on which side of the number the result lay.

The IC50 is the concentration that gives 50% inhibition. In general, inhibition refers to the relative decrease from the control value, in per cent. For orientation: Kd means the free concentration of one partner at which half of the binding sites on the other are occupied at equilibrium, for simple one-to-one binding. Higher therefore signals a looser complex.

For one experiment, the target named is PLpro from SARS-CoV-2 (Severe acute respiratory syndrome coronavirus 2, UniProt P0DTC1). The experiment can be described thus: biochemical. Conditions: for inhibition at 10 µM: read-out: percentage inhibition in the HTS.
Experiment [1] concerns the target T1, Nsp3^core (Severe acute respiratory syndrome coronavirus 2, UniProt P0DTC1). The experiment can be described thus: biochemical.
For experiment [2], the system named is panel of 42 human DUBs and the viral ovarian tumor (vOTU). It is filed as biochemical. As to conditions: tested at 10 and 1 μM; result in words.
The target of experiment [3] is T1, Nsp3^core. It counts as biochemical.
A further experiment concerns PLpro^CoV-1. Conditions: read-out: IC50 against PLpro^CoV-1; cited from earlier work.
For another experiment, the system named is SARS-CoV-2 PLpro. As to conditions: cited from earlier work.
For experiment [4], the target named is SARS-CoV-2 Nsp3 residues 743-1072 (PL-pro), purified, tags removed (SARS-CoV-2, Wuhan-Hu-1 (MN908947.3), UniProt P0DTD1). The experiment can be described thus: ITC. Conditions: both partners purified.
[5] abbreviates: screened in duplicate at 10 μM, hit criterion.

Regarding `CCN(CC)C(=S)SSC(=S)N(CC)CC` [Disulfiram], the IC50 against PLpro from SARS-CoV-2 was 690 nM; on Nsp3^core [1], 660 nM. The inhibition at 10 µM at PLpro from SARS-CoV-2 (setting [5]) was over 50%. For the same molecule, the “selectivity / off-target inhibition in the DUB panel” value (“selectivity / off-target inhibition” below) in experiment [2] is given as “inhibited–at different extents–several other human DUBs”.

In the case of `CC(Cc1ccc(O)c(O)c1)C(C)Cc1ccc(O)c(O)c1` (stereo not shown) [Nordihydroguaiaretic acid], the figures for the IC50 against PLpro from SARS-CoV-2 and against Nsp3^core [1] were 1060 nM and 1620 nM, respectively. In addition, the inhibition at 10 µM at PLpro from SARS-CoV-2 (setting [5]) is over 50%.

For `Nc1nc2nc[nH]c2c(=S)[nH]1` [Thioguanine], the IC50 on PLpro from SARS-CoV-2 amounted to 4540 nM.

Turning to `O=c1sn(-c2cccc3ccccc23)c(=O)n1Cc1ccccc1` [Tideglusib], the IC50 against PLpro from SARS-CoV-2 is 210 nM; against Nsp3^core [1], 1480 nM. Further, the inhibition at 10 µM on PLpro from SARS-CoV-2 is over 50%. Also, in experiment [2], the “selectivity / off-target inhibition” value is “inhibited–at different extents–several other human DUBs”.

As for Auranofin, the IC50 at PLpro from SARS-CoV-2 (read-out: IC50 against PLpro) and on Nsp3^core [1] was about 1000 nM throughout. In addition, in experiment [2], the “selectivity / off-target inhibition” value was “inhibited–at different extents–several other human DUBs”.

Regarding GRL-0617, at Nsp3^core [3], the “inhibition of viral polypeptide (Nsp1-2 FL) cleavage by Nsp3” value is given as “able to inhibit cleavage of the viral polypeptide”. The IC50 was 600 nM in the experiment with PLpro^CoV-1 and about 2000 nM in the experiment on SARS-CoV-2 PLpro.

B1: NbSL18, recombinant, purified from bacteria (VHH)
VHH: QVQLQESGGGLVQAGGSLRLSCAASGSIFLPGFMGWYRQAPGKERELVASITPGTTTNYADSVKGRFTISRDNAKNTVYLQMNSLKPEDTAVYYCAAYVFVYRNYWGQGTQVTVSS
The molecule B1 registered a Kd in experiment [4] of about 500 nM.
